Measured values from patent US8106003B2, “Peptides and methods for the treatment of inflammatory disease” (Auckland Uniservices Limited, priority 2004, dated 2012).

Test system: β2 integrin (αLβ2)-mediated adhesion of H9 cells to ICAM-1
Test: Cell adhesion assay: H9 cells to ICAM-1-Fc (integrin specificity)
Format: cell-based, human
Details: Mn++-activated H9 cells
Protocol: Cell adhesion assays. Lab-Tek 16-well glass slides (Nunc) or flat-bottomed 96-well maxisorb plates (Nunc) were coated with purified mouse MAdCAM-1-Fc, human VCAM-1-Fc, and human ICAM-1-Fc (70 to 100 μl of 5 to 10 μg/ml), and incubated at 4° C. overnight. Slides were washed once with PBS, and blocked with FCS for 2 h at room temperature. Slides were washed with Hanks balanced salt solution (HBSS) containing 10 mM Hepes. Cells were either left unlabeled or labeled with the fluorescent dye chloromethyl fluorescein diacetate (CMFDA; Molecular Probes, Oregon), and activated by resuspension in HBSS containing 10 mM Hepes supplemented with 2 mM Ca^++ and 2 mM Mn^++. Cells were alternatively activated with 50 ng/ml PMA, or by incubating with AlF4^− (10 mM NaF and 40 µM AlCl3). They were preincubated with peptides at different concentrations for 10 min at room temperature, checked for viability by trypan blue exclusion, and then 10^6 cells added to each coated well and left to adhere for 30 min at room temperature. […] The number of adherent cells was determined by counting the number of adherent cells in four independent fields at 100× magnification under an inverted microscope. […] The fluorescence of CMFDA-labeled adherent cells was measured using a VICTOR 1420 multilabel counter (Wallac). […]

Substance: YDDREY: cell permeable YDRREY (SEQ ID NO. 1) peptide, carrier not stated at this place
- inhibition of H9 cell binding to ICAM-1: neither the cell permeable YDDREY (SEQ ID NO. 1) peptide nor the β3 CARD were able to block
